Test system: GST-tagged Cn
Assay: PEPperPRINT peptide microarray binding assay with GST-tagged Cn
Summary of the method: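 Qualitative binding: peptides printed on a PEPperPRINT microarray were incubated overnight at 4 °C with 1 mg/ml GST-tagged Cn, then detected with Alexa-Fluor 647 anti-GST antibody. Log fluorescence was baseline-corrected, averaged over duplicate spots, Z-normalized and averaged across five repeats.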

[1] = GST-tagged Cn, max over the spots named in Location on chip
[2] = GST-tagged Cn, mean over the spots named in Location on chip
[3] = max over the chip locations listed for the peptide (two spots)
[4] = mean over the chip locations listed for the peptide (two spots)
[5] = GST-tagged Cn, max over the chip locations
[6] = GST-tagged Cn, mean over the chip locations
[7] = GST-tagged Cn, max over the spots on the chip (two locations)
[8] = GST-tagged Cn, mean over the spots on the chip (two locations)
[9] = GST-tagged Cn, max over the chip spots listed under Location on chip
[10] = GST-tagged Cn, mean over the chip spots listed under Location on chip
[11] = max over the spots listed under Location on chip
[12] = mean over the spots listed under Location on chip

Sequence: PALYDNALGIESFTLS [SeqCRZ1_Penicillium_arizonense]
- Chip Fluorescence (max) [1]: 1.355
- Chip Fluorescence (mean) [2]: 0.6125

Sequence: NDHALPEITVTPAELP [SeqRBM_7856]
- Chip Fluorescence (max) [3]: 4.823
- Chip Fluorescence (mean) [4]: 1.654

Sequence: SLDEEPGISINEKPVG [Seqshuffled_9948]
- Chip Fluorescence (max) [1]: 1.684
- Chip Fluorescence (mean) [2]: 0.5765

Sequence: RNPGSPVLELEGHSAS [SeqRBMlowT_6392]
- Chip Fluorescence (max) [5]: -0.1475
- Chip Fluorescence (mean) [6]: -0.4043

Sequence: TFWTNPQFKITLTEPD [SeqRBMlowT_689]
- Chip Fluorescence (max) [7]: 1.036
- Chip Fluorescence (mean) [8]: -0.78

Sequence: VEYDKVWKVAQFVNKC [Seqrandom_9995]
- Chip Fluorescence (max) [9]: 0.5427
- Chip Fluorescence (mean) [10]: -0.6454

Sequence: PSPDQPGIVVHTCEDD [SeqRBMlowT_9795]
- Chip Fluorescence (max) [9]: 0.973
- Chip Fluorescence (mean) [10]: 0.3644

Sequence: LKDESPEVRLNIISSL [SeqRBMlowT_1855]
- Chip Fluorescence (max) [11]: 3.106
- Chip Fluorescence (mean) [12]: 1.095

Sequence: HSKSIPKISIQSPVHH [SeqRBMlowT_863]
- Chip Fluorescence (max) [5]: -0.2725
- Chip Fluorescence (mean) [6]: -0.8171

Sequence: PGDDQPGIIVHPCEEP [SeqRBMlowT_1949]
- Chip Fluorescence (max) [11]: 2.883
- Chip Fluorescence (mean) [12]: 1.506

Sequence: TFWTNPQFRVTVTEPD [SeqRBMlowT_4663]
- Chip Fluorescence (max) [5]: 0.1471
- Chip Fluorescence (mean) [6]: -0.7824

Sequence: KRYWKPQFKFGTQVSE [SeqRBM_7919]
- Chip Fluorescence (max) [1]: 1.674
- Chip Fluorescence (mean) [2]: -0.01942

Sequence: PGLYDNALGIESFTLS [SeqRBMlowT_2801]
- Chip Fluorescence (max) [1]: 1.445
- Chip Fluorescence (mean) [2]: 0.04021

Sequence: KEGPISSTVVMEALSI [SeqRBM_843]
- Chip Fluorescence (max) [9]: 0.8382
- Chip Fluorescence (mean) [10]: -0.2608

Sequence: TFWTNPQYTITLEEPD [SeqRBMlowT_2235]
- Chip Fluorescence (max) [1]: 1.679
- Chip Fluorescence (mean) [2]: 0.2149

Sequence: WAGCDTWVFSIWRWIA [Seqrandom_10000]
- Chip Fluorescence (max) [3]: 3.486
- Chip Fluorescence (mean) [4]: 0.3128

Sequence: TFWTNPQYRLKLLEED [SeqCAPN11_Tupaia_chinensis]
- Chip Fluorescence (max) [3]: 4.428
- Chip Fluorescence (mean) [4]: 0.5574

Sequence: TFHTNPQYRVNIEDQD [SeqRBM_8967]
- Chip Fluorescence (max) [1]: 1.436
- Chip Fluorescence (mean) [2]: 0.08694

Sequence: TFWTNPQYRIKVTDPD [SeqRBMlowT_12]
- Chip Fluorescence (max) [5]: -0.2746
- Chip Fluorescence (mean) [6]: -1.188

Sequence: QPPQNPVATVSTAHHQ [SeqRBM_6519]
- Chip Fluorescence (max) [1]: 1.708
- Chip Fluorescence (mean) [2]: -0.008148

Sequence: FSFMCPDSNTNHDQVS [SeqRBM_6801]
- Chip Fluorescence (max) [9]: 0.3774
- Chip Fluorescence (mean) [10]: -0.7887

Sequence: PSMYQPHIIVKVAETE [SeqRBM_4049]
- Chip Fluorescence (max) [7]: 1.118
- Chip Fluorescence (mean) [8]: 0.1884

Sequence: RAYINPHMFFKFDGHK [SeqRBM_1639]
- Chip Fluorescence (max) [9]: 0.9031
- Chip Fluorescence (mean) [10]: 0.1441

Sequence: RQPGTALLELGGHKKQ [SeqRBMlowT_7758]
- Chip Fluorescence (max) [7]: 1.043
- Chip Fluorescence (mean) [8]: 0.136

Sequence: TFWTNPQFRVKLEDPD [SeqRBMlowT_223]
- Chip Fluorescence (max) [9]: 0.479
- Chip Fluorescence (mean) [10]: -1.105

Sequence: ASGLSPRIEITPSHEL [SeqNFATC2_Homo_sapiens]
- Chip Fluorescence (max) [7]: 0.9983
- Chip Fluorescence (mean) [8]: 0.1363

Sequence: STKSSGRPSRSPERAS [SeqRGA2_Colletotrichum_sublineola]
- Chip Fluorescence (max) [11]: 2.848
- Chip Fluorescence (mean) [12]: -0.8116

Sequence: TFWTNPQFKITLEEVD [SeqRBMlowT_4669]
- Chip Fluorescence (max) [7]: 1.236
- Chip Fluorescence (mean) [8]: 0.1676

Sequence: RNYINPQAQFTYDSGA [SeqRBM_6031]
- Chip Fluorescence (max) [5]: -0.2579
- Chip Fluorescence (mean) [6]: -0.9244

Sequence: KKMAPPCINIDPAPTS [SeqRBMlowT_307]
- Chip Fluorescence (max) [5]: 0.2085
- Chip Fluorescence (mean) [6]: -1.259

Sequence: TTLVIPQMRLTSEATF [SeqRBM_1117]
- Chip Fluorescence (max) [3]: 5.611
- Chip Fluorescence (mean) [4]: 1.324

Sequence: VPDIGHMALHHDQIQP [Seqrandom_9983]
- Chip Fluorescence (max) [9]: 0.5967
- Chip Fluorescence (mean) [10]: -0.4753

Sequence: ADEANPRITITPAELP [SeqRBMlowT_3131]
- Chip Fluorescence (max) [3]: 16.2722
- Chip Fluorescence (mean) [4]: 1.499

Sequence: TFWTNPQYRLKVTDPD [SeqRBMlowT_5581]
- Chip Fluorescence (max) [11]: 3.3
- Chip Fluorescence (mean) [12]: 1.547

Sequence: RNPGQALLTLRGHKAS [SeqRBMlowT_7787]
- Chip Fluorescence (max) [9]: 0.3829
- Chip Fluorescence (mean) [10]: -0.6837

Sequence: STSSLPTFSFSSPLPT [SeqRBMlowT_898]
- Chip Fluorescence (max) [5]: -0.2197
- Chip Fluorescence (mean) [6]: -1.424

Sequence: LKDEFPEVRLNIISNL [SeqRBMlowT_1004]
- Chip Fluorescence (max) [7]: 1.029
- Chip Fluorescence (mean) [8]: 0.2404

Sequence: STSSLPTFSFSTPPPT [SeqRBMlowT_1617]
- Chip Fluorescence (max) [7]: 1.022
- Chip Fluorescence (mean) [8]: -1.34

Sequence: KAYMCPFMQFIEGGRR [SeqSFB3_Pan_troglodytes]
- Chip Fluorescence (max) [9]: 0.9778
- Chip Fluorescence (mean) [10]: -1.603

Sequence: PAGTGVGIVITVTEAE [SeqRBMlowT_157]
- Chip Fluorescence (max) [7]: 1.221
- Chip Fluorescence (mean) [8]: -0.03937

Sequence: STSSLPTFSFSPPAPS [SeqRBMlowT_2355]
- Chip Fluorescence (max) [1]: 1.468
- Chip Fluorescence (mean) [2]: -0.4662

Sequence: TFWSNPQFDIALDDDD [SeqRBM_1928]
- Chip Fluorescence (max) [3]: 3.897
- Chip Fluorescence (mean) [4]: 1.75

Sequence: NVLRISSARPDNRGVY [SeqCEACAM5_Musca_domestica]
- Chip Fluorescence (max) [1]: 1.598
- Chip Fluorescence (mean) [2]: 0.6708

Sequence: NFNPNPAVVLKIPQQR [SeqRBM_5953]
- Chip Fluorescence (max) [5]: -0.355
- Chip Fluorescence (mean) [6]: -1.487

Sequence: TFWTNPQFKVKLEDPD [SeqRBMlowT_4293]
- Chip Fluorescence (max) [9]: 0.7466
- Chip Fluorescence (mean) [10]: -0.6386

Sequence: LNLEIPEVRLNIISAL [SeqRBMlowT_8463]
- Chip Fluorescence (max) [5]: 0.2778
- Chip Fluorescence (mean) [6]: -0.136

Sequence: TFWTNPQFRLKVVDPD [SeqRBMlowT_7375]
- Chip Fluorescence (max) [1]: 1.609
- Chip Fluorescence (mean) [2]: 0.5158

Sequence: SDSANPEITITPAELP [SeqRBMlowT_1995]
- Chip Fluorescence (max) [3]: 3.663
- Chip Fluorescence (mean) [4]: 2.123

Sequence: PQPSVQSAEFMEFVGH [Seqshuffled_8788]
- Chip Fluorescence (max) [1]: 1.4183
- Chip Fluorescence (mean) [2]: 0.4268

Sequence: LKDESPEVRLNIISKL [SeqRBMlowT_3831]
- Chip Fluorescence (max) [7]: 1.167
- Chip Fluorescence (mean) [8]: 0.2257

Sequence: TFWTNPQFKVKLEDVD [SeqRBMlowT_6885]
- Chip Fluorescence (max) [1]: 1.498
- Chip Fluorescence (mean) [2]: -0.7469

Sequence: RTRRISPLFDNPNSKQ [Seqshuffled_9774]
- Chip Fluorescence (max) [3]: 4.819
- Chip Fluorescence (mean) [4]: 0.7359

Sequence: VKLVIIQVRSASVDAN [SeqRBM_6437]
- Chip Fluorescence (max) [5]: -0.5934
- Chip Fluorescence (mean) [6]: -1.618

Sequence: QTEDQPGIIVHTAMLP [SeqRCN1_Bactrocera_dorsalis]
- Chip Fluorescence (max) [9]: 0.5479
- Chip Fluorescence (mean) [10]: -0.783

Sequence: HVSSSPDITVTPTQHR [SeqRBMlowT_701]
- Chip Fluorescence (max) [5]: 0.2772
- Chip Fluorescence (mean) [6]: -0.7766

Sequence: RNPGQALLTLRGHKAQ [SeqRBMlowT_5824]
- Chip Fluorescence (max) [5]: -0.7814
- Chip Fluorescence (mean) [6]: -1.225

Sequence: ASMSPPCINIDYAPIS [SeqRBM_1607]
- Chip Fluorescence (max) [5]: -0.1231
- Chip Fluorescence (mean) [6]: -1.5167

Sequence: LNLKIPTIAKADITAT [SeqRBM_4458]
- Chip Fluorescence (max) [1]: 1.846
- Chip Fluorescence (mean) [2]: -0.3422

Sequence: PPPGTPTRIGQHMAPS [SeqRBM_7926]
- Chip Fluorescence (max) [5]: -0.5504
- Chip Fluorescence (mean) [6]: -1.127

Sequence: SSRSSSRPARSPERKP [SeqRGA2_Fusarium_oxysporum]
- Chip Fluorescence (max) [3]: 4.629
- Chip Fluorescence (mean) [4]: 0.8375

Sequence: GPPATPSIVVHPCCCD [SeqRBM_2098]
- Chip Fluorescence (max) [7]: 1.034
- Chip Fluorescence (mean) [8]: -0.005812

Sequence: TFWMNPQFKINLEEED [SeqCAPN11_Salmo_salar]
- Chip Fluorescence (max) [11]: 3.077
- Chip Fluorescence (mean) [12]: 0.4499

Sequence: STSSLPTFSFSSPVPS [SeqRBMlowT_2358]
- Chip Fluorescence (max) [5]: -0.2537
- Chip Fluorescence (mean) [6]: -3.06

— article PMC9928118, “Funneling modulatory peptide design with generative models: Discovery and characterization of disruptors of calcineurin protein-protein interactions” (PLOS Computational Biology, 2023)
